Assay results as given in publication PMC3961306, “Comparison of the Cancer Gene Targeting and Biochemical Selectivities of All Targeted Kinase Inhibitors Approved for Clinical Use” (PLoS ONE, 2014).

Assays:
Test in all cases: Kinase profiling in a biochemical assay panel (mobility shift assays and ELISA), %-inhibition at 1 μM; selectivity entropy
[1] = target: T1, panel of more than 300 wild-type and mutant kinases (313 kinase panel) (Homo sapiens, UniProt Q96PY6)
T1 sequence (Q96PY6 1-1258): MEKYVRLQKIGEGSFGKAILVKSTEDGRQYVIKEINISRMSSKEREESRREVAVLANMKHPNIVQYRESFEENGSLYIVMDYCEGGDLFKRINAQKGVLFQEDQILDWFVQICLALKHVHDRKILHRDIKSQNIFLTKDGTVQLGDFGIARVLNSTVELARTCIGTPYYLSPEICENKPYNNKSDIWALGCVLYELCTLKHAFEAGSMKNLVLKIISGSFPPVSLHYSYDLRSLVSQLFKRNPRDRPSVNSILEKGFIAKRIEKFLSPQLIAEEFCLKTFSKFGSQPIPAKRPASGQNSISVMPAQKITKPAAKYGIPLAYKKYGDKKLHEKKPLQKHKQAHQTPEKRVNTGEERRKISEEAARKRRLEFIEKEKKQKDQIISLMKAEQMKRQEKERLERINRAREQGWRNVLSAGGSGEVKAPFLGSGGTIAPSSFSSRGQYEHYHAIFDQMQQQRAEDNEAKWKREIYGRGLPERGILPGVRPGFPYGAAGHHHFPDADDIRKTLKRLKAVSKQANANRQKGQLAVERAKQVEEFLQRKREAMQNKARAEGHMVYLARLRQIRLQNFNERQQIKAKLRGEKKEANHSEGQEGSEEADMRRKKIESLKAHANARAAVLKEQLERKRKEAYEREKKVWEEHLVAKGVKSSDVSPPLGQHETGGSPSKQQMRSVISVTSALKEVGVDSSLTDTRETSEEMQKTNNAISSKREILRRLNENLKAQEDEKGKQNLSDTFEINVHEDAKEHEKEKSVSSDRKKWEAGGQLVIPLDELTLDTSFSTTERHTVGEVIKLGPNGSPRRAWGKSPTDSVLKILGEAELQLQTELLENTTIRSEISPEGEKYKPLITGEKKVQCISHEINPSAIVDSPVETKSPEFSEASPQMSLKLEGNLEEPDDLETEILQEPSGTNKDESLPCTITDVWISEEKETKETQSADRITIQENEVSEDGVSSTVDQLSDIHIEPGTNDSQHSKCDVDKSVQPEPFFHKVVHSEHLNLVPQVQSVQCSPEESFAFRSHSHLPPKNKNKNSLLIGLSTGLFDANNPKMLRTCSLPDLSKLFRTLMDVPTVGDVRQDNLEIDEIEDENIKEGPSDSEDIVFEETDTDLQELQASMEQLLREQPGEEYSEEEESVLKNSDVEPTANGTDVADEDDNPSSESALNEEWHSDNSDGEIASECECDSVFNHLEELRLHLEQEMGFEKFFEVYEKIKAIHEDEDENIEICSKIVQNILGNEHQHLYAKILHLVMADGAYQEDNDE

[2] = target: T2, panel of more than 300 wild-type and mutant kinases (313 kinase panel) (Homo sapiens, UniProt Q15831)
T2 sequence (Q15831 1-433): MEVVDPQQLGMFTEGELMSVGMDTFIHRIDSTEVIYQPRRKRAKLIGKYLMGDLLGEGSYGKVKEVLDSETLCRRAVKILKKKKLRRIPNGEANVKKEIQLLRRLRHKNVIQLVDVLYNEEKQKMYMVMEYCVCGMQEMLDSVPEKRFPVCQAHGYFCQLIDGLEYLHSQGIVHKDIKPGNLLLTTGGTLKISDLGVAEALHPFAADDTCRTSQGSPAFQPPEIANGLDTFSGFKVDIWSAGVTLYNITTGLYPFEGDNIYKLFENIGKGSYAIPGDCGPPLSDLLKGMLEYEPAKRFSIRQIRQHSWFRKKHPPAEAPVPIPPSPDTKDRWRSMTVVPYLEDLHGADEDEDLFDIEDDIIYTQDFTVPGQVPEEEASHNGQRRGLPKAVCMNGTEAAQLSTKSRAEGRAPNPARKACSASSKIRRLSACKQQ

[3] = target: panel of more than 300 wild-type and mutant kinases (313 kinase panel) (Homo sapiens, UniProt P54756)
[4] = target: T3, panel of more than 300 wild-type and mutant kinases (313 kinase panel) (Homo sapiens, UniProt P51813)
T3 sequence (P51813 1-675): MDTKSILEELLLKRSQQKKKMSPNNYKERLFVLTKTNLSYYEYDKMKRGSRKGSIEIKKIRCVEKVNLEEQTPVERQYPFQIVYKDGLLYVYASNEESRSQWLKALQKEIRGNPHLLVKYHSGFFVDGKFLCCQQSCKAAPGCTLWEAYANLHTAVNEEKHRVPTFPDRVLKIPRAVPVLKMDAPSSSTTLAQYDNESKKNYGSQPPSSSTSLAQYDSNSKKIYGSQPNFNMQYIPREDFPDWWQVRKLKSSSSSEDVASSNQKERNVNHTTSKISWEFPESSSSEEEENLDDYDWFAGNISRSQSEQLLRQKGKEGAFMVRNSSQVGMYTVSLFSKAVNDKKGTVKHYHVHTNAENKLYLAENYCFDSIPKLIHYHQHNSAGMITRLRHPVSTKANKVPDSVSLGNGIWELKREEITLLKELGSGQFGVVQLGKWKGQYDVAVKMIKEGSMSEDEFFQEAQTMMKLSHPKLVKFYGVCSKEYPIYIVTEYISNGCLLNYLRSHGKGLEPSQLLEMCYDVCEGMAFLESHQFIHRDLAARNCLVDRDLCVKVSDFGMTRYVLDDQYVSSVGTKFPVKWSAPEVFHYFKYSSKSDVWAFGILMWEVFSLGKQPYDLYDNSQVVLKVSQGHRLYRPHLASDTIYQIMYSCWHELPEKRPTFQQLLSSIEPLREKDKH

[5] = target: panel of more than 300 wild-type and mutant kinases (313 kinase panel) (Homo sapiens, UniProt P10721, T670I)
panel of more than 300 wild-type and mutant kinases (313 kinase panel) (Homo sapiens, UniProt P10721, T670I), sequence (P10721 26-976 T670I): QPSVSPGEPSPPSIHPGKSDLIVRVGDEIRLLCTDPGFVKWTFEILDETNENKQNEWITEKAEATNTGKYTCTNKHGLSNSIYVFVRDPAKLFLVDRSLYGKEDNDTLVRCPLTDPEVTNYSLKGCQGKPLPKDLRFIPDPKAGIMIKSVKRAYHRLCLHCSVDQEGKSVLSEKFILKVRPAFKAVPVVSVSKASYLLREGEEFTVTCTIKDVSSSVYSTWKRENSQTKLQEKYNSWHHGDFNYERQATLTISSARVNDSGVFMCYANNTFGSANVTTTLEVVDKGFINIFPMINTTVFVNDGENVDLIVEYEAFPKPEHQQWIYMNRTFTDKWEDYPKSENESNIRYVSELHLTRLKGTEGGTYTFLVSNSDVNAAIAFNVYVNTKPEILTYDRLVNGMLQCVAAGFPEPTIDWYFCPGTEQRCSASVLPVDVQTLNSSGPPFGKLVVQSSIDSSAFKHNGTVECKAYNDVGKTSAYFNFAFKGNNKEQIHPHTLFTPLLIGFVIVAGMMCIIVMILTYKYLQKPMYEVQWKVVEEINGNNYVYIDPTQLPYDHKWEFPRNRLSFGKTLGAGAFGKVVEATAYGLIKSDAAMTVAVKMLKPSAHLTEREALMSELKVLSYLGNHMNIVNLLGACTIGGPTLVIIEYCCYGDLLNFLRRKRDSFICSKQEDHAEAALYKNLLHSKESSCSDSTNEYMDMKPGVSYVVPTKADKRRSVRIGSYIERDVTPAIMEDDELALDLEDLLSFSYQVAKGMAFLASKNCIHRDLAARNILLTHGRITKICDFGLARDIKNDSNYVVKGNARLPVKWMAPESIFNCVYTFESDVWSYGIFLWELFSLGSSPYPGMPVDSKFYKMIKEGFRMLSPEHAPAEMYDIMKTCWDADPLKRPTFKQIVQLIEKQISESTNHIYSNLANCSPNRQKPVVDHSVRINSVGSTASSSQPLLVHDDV

[6] = kinase KIT(T670I), compound at 1 μM

SMILES: CO[C@H]1C[C@@H]2CC[C@@H](C)[C@@](O)(O2)C(=O)C(=O)N2CCCC[C@H]2C(=O)O[C@H]([C@H](C)C[C@@H]2CC[C@@H](OCCO)[C@H](OC)C2)CC(=O)[C@H](C)/C=C(\C)[C@@H](O)[C@@H](OC)C(=O)[C@H](C)C[C@H](C)/C=C/C=C/C=C/1C [everolimus]
- %-inhibition of NEK1 ([1]; kinase NEK1, 1 μM): -7%
- %-inhibition of LKB1 ([2]; kinase LKB1, compound at 1 μM): -9%
- %-inhibition of EPHA5 ([3]; kinase EPHA5, compound at 1 μM): -1.69%
- %-inhibition, BMX ([4]; kinase BMX, 1 μM compound): -5.3%
- %-inhibition of KIT(T670I) [5, 6]: -2.56%

SMILES: CCN(CC)CCNC(=O)c1c(C)[nH]c(/C=C2\C(=O)Nc3ccc(F)cc32)c1C [sunitinib]
- %-inhibition of LKB1 ([2]; kinase LKB1, compound at 1 μM): 11%

SMILES: CC(=O)Nc1cccc(-n2c(=O)n(C3CC3)c(=O)c3c(Nc4ccc(I)cc4F)n(C)c(=O)c(C)c32)c1 [trametinib]
- %-inhibition of NEK1 ([1]; kinase NEK1, 1 μM): -5%
- %-inhibition of LKB1 ([2]; kinase LKB1, compound at 1 μM): 2.38%
- %-inhibition of EPHA5 ([3]; kinase EPHA5, compound at 1 μM): -2.67%
- %-inhibition, BMX ([4]; kinase BMX, 1 μM compound): -3.22%
- %-inhibition of KIT(T670I) [5, 6]: -3%

SMILES: O=S(=O)(c1cccc2cnccc12)N1CCCNCC1 [fasudil]
- %-inhibition of NEK1 ([1]; kinase NEK1, 1 μM): -6.36%
- %-inhibition of LKB1 ([2]; kinase LKB1, compound at 1 μM): 6%
- %-inhibition of EPHA5 ([3]; kinase EPHA5, compound at 1 μM): -3.43%
- %-inhibition, BMX ([4]; kinase BMX, 1 μM compound): -4%
- %-inhibition of KIT(T670I) [5, 6]: 0.568%

SMILES: N#CC[C@H](C1CCCC1)n1cc(-c2ncnc3[nH]ccc23)cn1 [ruxolitinib]
- %-inhibition of NEK1 ([1]; kinase NEK1, 1 μM): -4%
- %-inhibition of LKB1 ([2]; 1 µM): 0.546%
- %-inhibition of EPHA5 ([3]; 1 µM): 18%
- %-inhibition, BMX ([4]; kinase BMX, 1 μM compound): 6.6%
- %-inhibition of KIT(T670I) [5, 6]: -0.512%

SMILES: COc1cc2nccc(Oc3ccc(NC(=O)C4(C(=O)Nc5ccc(F)cc5)CC4)cc3)c2cc1OC [cabozantinib]
- %-inhibition of NEK1 ([1]; kinase NEK1, 1 μM): -4.23%
- %-inhibition of LKB1 ([2]; kinase LKB1, compound at 1 μM): -3.17%
- %-inhibition of EPHA5 ([3]; kinase EPHA5, compound at 1 μM): 99%
- %-inhibition, BMX ([4]; kinase BMX, 1 μM compound): 53%
- %-inhibition of KIT(T670I) [5, 6]: 100%

SMILES: CC(C)(C)c1nc(-c2cccc(NS(=O)(=O)c3c(F)cccc3F)c2F)c(-c2ccnc(N)n2)s1 [dabrafenib]
- %-inhibition of NEK1 ([1]; kinase NEK1, 1 μM): 24%
- %-inhibition of LKB1 ([2]; kinase LKB1, compound at 1 μM): 4.34%
- %-inhibition, BMX ([4]; kinase BMX, 1 μM compound): 55%
- %-inhibition of KIT(T670I) [5, 6]: 1.7%

SMILES: C[C@@H](Oc1cc(-c2cnn(C3CCNCC3)c2)cnc1N)c1c(Cl)ccc(F)c1Cl [crizotinib]
- %-inhibition of NEK1 ([1]; kinase NEK1, 1 μM): 2.24%
- %-inhibition of LKB1 ([2]; kinase LKB1, compound at 1 μM): -1.39%
- %-inhibition of EPHA5 ([3]; kinase EPHA5, compound at 1 μM): 71%
- %-inhibition of KIT(T670I) [5, 6]: 64%

SMILES: CCCS(=O)(=O)Nc1ccc(F)c(C(=O)c2c[nH]c3ncc(-c4ccc(Cl)cc4)cc23)c1F [vemurafenib]
- %-inhibition of NEK1 ([1]; kinase NEK1, 1 μM): -2.74%
- %-inhibition of LKB1 ([2]; kinase LKB1, compound at 1 μM): 1.13%
- %-inhibition of EPHA5 ([3]; kinase EPHA5, compound at 1 μM): 14%
- %-inhibition, BMX ([4]; kinase BMX, 1 μM compound): 24%
- %-inhibition of KIT(T670I) [5, 6]: 5.29%

SMILES: COc1cc2c(Nc3ccc(Br)cc3F)ncnc2cc1OCC1CCN(C)CC1 [vandetanib]
- %-inhibition of NEK1 ([1]; kinase NEK1, 1 μM): -8%
- %-inhibition of LKB1 ([2]; kinase LKB1, compound at 1 μM): -4.54%
- %-inhibition of EPHA5 ([3]; kinase EPHA5, compound at 1 μM): 89%
- %-inhibition, BMX ([4]; kinase BMX, 1 μM compound): 18%

SMILES: C#Cc1cccc(Nc2ncnc3cc(OCCOC)c(OCCOC)cc23)c1 [erlotinib]
- %-inhibition of NEK1 ([1]; 1 µM): 5%
- %-inhibition of LKB1 ([2]; 1 µM): 2%
- %-inhibition of EPHA5 ([3]; 1 µM): 38%
- %-inhibition, BMX ([4]; 1 µM): 17%
- %-inhibition of KIT(T670I) ([5]; 1 µM): 14%

SMILES: CNC(=O)c1cc(Oc2ccc(NC(=O)Nc3ccc(Cl)c(C(F)(F)F)c3)c(F)c2)ccn1 [regorafenib]
- %-inhibition of NEK1 ([1]; kinase NEK1, 1 μM): -7%
- %-inhibition of LKB1 ([2]; kinase LKB1, compound at 1 μM): -5%
- %-inhibition of EPHA5 ([3]; kinase EPHA5, compound at 1 μM): 97%
- %-inhibition, BMX ([4]; kinase BMX, 1 μM compound): -1.77%
- %-inhibition of KIT(T670I) [5, 6]: 101%

SMILES: Cc1ccc(C(=O)Nc2ccc(CN3CCN(C)CC3)c(C(F)(F)F)c2)cc1C#Cc1cnc2cccnn12 [ponatinib]
- %-inhibition of NEK1 ([1]; kinase NEK1, 1 μM): 78%
- %-inhibition of LKB1 ([2]; kinase LKB1, compound at 1 μM): -12%

SMILES: Cc1ccc(Nc2nccc(N(C)c3ccc4c(C)n(C)nc4c3)n2)cc1S(N)(=O)=O [pazopanib]
- %-inhibition of NEK1 ([1]; kinase NEK1, 1 μM): 2.41%
- %-inhibition of LKB1 ([2]; kinase LKB1, compound at 1 μM): 28%
- %-inhibition of EPHA5 ([3]; kinase EPHA5, compound at 1 μM): 32%
- %-inhibition, BMX ([4]; kinase BMX, 1 μM compound): 24%
- %-inhibition of KIT(T670I) ([5]; 1 µM): 68%

SMILES: Cc1cn(-c2cc(NC(=O)c3ccc(C)c(Nc4nccc(-c5cccnc5)n4)c3)cc(C(F)(F)F)c2)cn1 [nilotinib]
- %-inhibition of NEK1 ([1]; kinase NEK1, 1 μM): -23%
- %-inhibition of LKB1 ([2]; 1 µM): -6%
- %-inhibition of EPHA5 ([3]; 1 µM): 93%
- %-inhibition of KIT(T670I) ([5]; 1 µM): 18%

SMILES: Cc1nc(Nc2ncc(C(=O)Nc3c(C)cccc3Cl)s2)cc(N2CCN(CCO)CC2)n1 [dasatinib]
- %-inhibition of LKB1 ([2]; kinase LKB1, compound at 1 μM): 0.734%

SMILES: COc1cc(Nc2c(C#N)cnc3cc(OCCCN4CCN(C)CC4)c(OC)cc23)c(Cl)cc1Cl [bosutinib]
- %-inhibition of LKB1 ([2]; kinase LKB1, compound at 1 μM): -5.27%
- %-inhibition of KIT(T670I) [5, 6]: 7%
